Patent publication US10294202B2, “Pyrrolidinones as herbicides” (FMC Corporation, priority 2013, dated 2019)

Assays:
barnyardgrass [1] = assay: Test B flooded paddy test; format: in vivo, Echinochloa crus-galli; conditions: 500 g ai/ha, Flood; scale of 0 to 100 where 0 is no effect and 100 is complete control
Method in brief: (§1)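 Plants were grown to the 2-leaf stage, then pots were flooded to 3 cm above the soil and compound was applied directly into the paddy water, with that depth held throughout. After 13 to 15 days in a greenhouse, injury was rated visually against untreated controls on a 0 to 100 scale (100 = complete control).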

ducksalad = assay: Test B flooded paddy test; format: in vivo, Heteranthera limosa; conditions: 500 g ai/ha, Flood; scale of 0 to 100 where 0 is no effect and 100 is complete control
Method in brief: as §1

blackgrass = assay: Test A postemergence herbicide test; format: in vivo, Alopecurus myosuroides
Method in brief: (§2)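 Ratings compare treated with untreated plants roughly 10 days after a postemergence application made at the one- to two-leaf stage. Scoring uses 0–100, where 0 means no effect and 100 complete control.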

rice = assay: Test B flooded paddy test; format: in vivo, Oryza sativa; conditions: 500 g ai/ha, Flood; scale of 0 to 100 where 0 is no effect and 100 is complete control
Method in brief: as §1

wheat = assay: Test A pre-/postemergence herbicide test; format: in vivo, Triticum aestivum; conditions: Postemergence
Method in brief: (§3)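 Greenhouse pot test with pre- and postemergence application of surfactant-containing solvent formulations. Postemergence plants were 2–10 cm, one- to two-leaf stage. Response scored visually after ~10 days, 0 (no effect) to 100 (complete control).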

corn = assay: Test A pre-/postemergence herbicide test; format: in vivo, Zea mays; conditions: Postemergence
Method in brief: as §3

pigweed = assay: Test A pre-/postemergence herbicide test; format: in vivo, Amaranthus retroflexus
Method in brief: as §3

ryegrass, Italian = assay: Test A pre-/postemergence herbicide test; format: in vivo, Lolium multiflorum
Method in brief: as §3

ragweed = assay: Test A pre-/postemergence herbicide test; format: in vivo, Ambrosia elatior
Method in brief: as §3

sedge, umbrella = assay: Test B flooded paddy test; format: in vivo, Cyperus difformis; conditions: 500 g ai/ha, Flood; scale of 0 to 100 where 0 is no effect and 100 is complete control
Method in brief: as §1

kochia = assay: Test A pre-/postemergence herbicide test; format: in vivo, Kochia scoparia
Method in brief: as §3

barnyardgrass [2] = assay: Test A pre-/postemergence herbicide test; format: in vivo, Echinochloa crus-galli
Method in brief: as §3

giant foxtail = assay: Test A pre-/postemergence herbicide test; format: in vivo, Setaria faberii
Method in brief: as §3

galium = assay: Test A postemergence herbicide test; format: in vivo, Galium aparine
Method in brief: as §2

[3] = 125 g ai/ha, visual rating on 0 to 100 scale (0 no effect, 100 complete control), approx. 10 days
[4] = 500 g ai/ha, 0 to 100 scale (0 no effect, 100 complete control)
[5] = Postemergence, 125 g ai/ha, visual rating on 0 to 100 scale (0 no effect, 100 complete control), approx. 10 days
[6] = Postemergence, 500 g ai/ha, 0 to 100 scale (0 no effect, 100 complete control)
[7] = Preemergence, 125 g ai/ha, 0 to 100 scale where 0 is no effect and 100 is complete control
[8] = preemergence, 500 g ai/ha, 0 to 100 scale, 0 is no effect and 100 is complete control
[9] = Preemergence, 500 g ai/ha, visual rating on 0 to 100 scale (0 no effect, 100 complete control)

O=C1NCC(c2cnn(CC(F)(F)F)c2)C1C(=O)Nc1ccccc1F (stereo not drawn) [Compound 298]
0: Plant response rating, Barnyardgrass (barnyardgrass [1]) | Plant response rating, Ducksalad (ducksalad) | Plant response rating, Blackgrass (blackgrass; [3]) | Plant response rating, Blackgrass (blackgrass; [4]) | Plant response rating, Rice (rice) | Plant response rating, Wheat (wheat; [3]) | Plant response rating, Wheat (wheat; [4]) | Plant response rating, Corn (corn; [3]) | Plant response rating, Corn (corn; [4]) | Plant response rating, Pigweed (pigweed; [5]) | Plant response rating, Pigweed (pigweed; [6]) | Plant response rating, Pigweed (pigweed; [7]) | Plant response rating, Pigweed (pigweed; [8]) | Plant response rating, Ryegrass, Italian (ryegrass, Italian; [5]) | Plant response rating, Ryegrass, Italian (ryegrass, Italian; [6]) | Plant response rating, Ryegrass, Italian (ryegrass, Italian; [7]) | Ryegrass, Italian plant response rating (ryegrass, Italian; [9]) | Plant response rating, Ragweed (ragweed; [5]) | Plant response rating, Ragweed (ragweed; [6]) | Plant response rating, Ragweed (ragweed; [7]) | Plant response rating, Ragweed (ragweed; [8]) | Plant response rating, Sedge, Umbrella (sedge, umbrella) | Plant response rating, Kochia (kochia; [5]) | Plant response rating, Kochia (kochia; [6]) | Plant response rating, Kochia (kochia; [7]) | Plant response rating, Kochia (kochia; [8]) | Plant response rating, Barnyardgrass (barnyardgrass [2]; [5]) | Plant response rating, Barnyardgrass (barnyardgrass [2]; [6]) | Plant response rating, Barnyardgrass (barnyardgrass [2]; [7]) | Plant response rating, Barnyardgrass (barnyardgrass [2]; [8]) | Plant response rating, Foxtail, Giant (giant foxtail; [5]) | Plant response rating, Foxtail, Giant (giant foxtail; [6]) | Plant response rating, Foxtail, Giant (giant foxtail; [7]) | Plant response rating, Foxtail, Giant (giant foxtail; [8]) | Plant response rating, Galium (galium; [3]) | Plant response rating, Galium (galium; [4])

O=C1NCC(c2cnn(CC(F)(F)F)c2)C1C(=O)Nc1ccccc1C(F)(F)F (stereo not drawn) [Compound 300]
0: Plant response rating, Barnyardgrass (barnyardgrass [1]) | Plant response rating, Ducksalad (ducksalad) | Plant response rating, Blackgrass (blackgrass; [3]) | Plant response rating, Blackgrass (blackgrass; [4]) | Plant response rating, Rice (rice) | Plant response rating, Wheat (wheat; [3]) | Plant response rating, Wheat (wheat; [4]) | Plant response rating, Corn (corn; [3]) | Plant response rating, Corn (corn; [4]) | Plant response rating, Pigweed (pigweed; [5]) | Plant response rating, Pigweed (pigweed; [6]) | Plant response rating, Pigweed (pigweed; [7]) | Plant response rating, Pigweed (pigweed; [8]) | Plant response rating, Ryegrass, Italian (ryegrass, Italian; [5]) | Plant response rating, Ryegrass, Italian (ryegrass, Italian; [6]) | Plant response rating, Ryegrass, Italian (ryegrass, Italian; [7]) | Ryegrass, Italian plant response rating (ryegrass, Italian; [9]) | Plant response rating, Ragweed (ragweed; [5]) | Plant response rating, Ragweed (ragweed; [6]) | Plant response rating, Ragweed (ragweed; [7]) | Plant response rating, Ragweed (ragweed; [8]) | Plant response rating, Sedge, Umbrella (sedge, umbrella) | Plant response rating, Kochia (kochia; [5]) | Plant response rating, Kochia (kochia; [6]) | Plant response rating, Kochia (kochia; [7]) | Plant response rating, Kochia (kochia; [8]) | Plant response rating, Barnyardgrass (barnyardgrass [2]; [5]) | Plant response rating, Barnyardgrass (barnyardgrass [2]; [6]) | Plant response rating, Barnyardgrass (barnyardgrass [2]; [7]) | Plant response rating, Barnyardgrass (barnyardgrass [2]; [8]) | Plant response rating, Foxtail, Giant (giant foxtail; [5]) | Plant response rating, Foxtail, Giant (giant foxtail; [6]) | Plant response rating, Foxtail, Giant (giant foxtail; [7]) | Plant response rating, Foxtail, Giant (giant foxtail; [8]) | Plant response rating, Galium (galium; [3]) | Plant response rating, Galium (galium; [4])
